Assay results reported in patent US8119637B2, “Substituted pyrrolo[2,3-b]pyrazines and methods for kinase modulation, and indications therefor” (Plexxikon Inc., priority 2008, dated 2012).

Assays:
Assay type in all cases: biochemical
Details in all cases: method of U.S. Ser. No. 11/473,347 or similar
[1] = target: Btk (Homo sapiens, UniProt Q06187); experiment: Btk kinase activity assay
From the text: (§1) Assays for the activity of kinases, including, but not limited to, Fms, Kit, B-Raf, B-Raf V600E, B-Raf V600E/T5291 and c-Raf-1 are known in the art, for example as described in US Patent Publication Number US20070032519 and U.S. patent application Ser. No. 11/473,347 (see also, PCT publication WO2007002433), the disclosures of which are hereby incorporated by reference with respect to such assays.
(§2) Compounds P-0001 was screened by at least one of the methods described in U.S. patent application Ser. No. 11/473,347, or by similar methods.

[2] = target: Fms (Homo sapiens, UniProt P07333); experiment: Fms kinase activity assay
From the text: as §1, §2

[3] = target: Kit (Homo sapiens, UniProt P10721); experiment: Kit kinase activity assay
From the text: as §1, §2

[4] = target: Kdr (Homo sapiens, UniProt P35968); experiment: Kdr kinase activity assay
From the text: as §1, §2

Btk, sequence (Q06187 whole entry): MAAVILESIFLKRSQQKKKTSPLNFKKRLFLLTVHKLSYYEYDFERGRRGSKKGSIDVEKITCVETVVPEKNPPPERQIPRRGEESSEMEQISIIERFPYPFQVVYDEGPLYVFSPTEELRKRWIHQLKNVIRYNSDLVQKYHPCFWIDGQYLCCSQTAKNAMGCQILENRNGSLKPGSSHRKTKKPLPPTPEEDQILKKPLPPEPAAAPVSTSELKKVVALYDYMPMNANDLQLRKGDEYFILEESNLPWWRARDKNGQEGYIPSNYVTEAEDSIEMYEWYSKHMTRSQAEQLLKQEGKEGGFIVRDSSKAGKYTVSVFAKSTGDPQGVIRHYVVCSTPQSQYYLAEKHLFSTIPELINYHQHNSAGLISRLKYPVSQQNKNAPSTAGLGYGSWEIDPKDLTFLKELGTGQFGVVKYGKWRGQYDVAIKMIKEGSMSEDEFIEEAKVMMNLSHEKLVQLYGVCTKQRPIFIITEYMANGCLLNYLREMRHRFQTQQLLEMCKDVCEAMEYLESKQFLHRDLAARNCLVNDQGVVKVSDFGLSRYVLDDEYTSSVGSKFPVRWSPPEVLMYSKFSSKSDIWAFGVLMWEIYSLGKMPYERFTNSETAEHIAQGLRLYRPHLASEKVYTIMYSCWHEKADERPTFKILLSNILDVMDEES
Kdr, sequence (P35968 20-1356): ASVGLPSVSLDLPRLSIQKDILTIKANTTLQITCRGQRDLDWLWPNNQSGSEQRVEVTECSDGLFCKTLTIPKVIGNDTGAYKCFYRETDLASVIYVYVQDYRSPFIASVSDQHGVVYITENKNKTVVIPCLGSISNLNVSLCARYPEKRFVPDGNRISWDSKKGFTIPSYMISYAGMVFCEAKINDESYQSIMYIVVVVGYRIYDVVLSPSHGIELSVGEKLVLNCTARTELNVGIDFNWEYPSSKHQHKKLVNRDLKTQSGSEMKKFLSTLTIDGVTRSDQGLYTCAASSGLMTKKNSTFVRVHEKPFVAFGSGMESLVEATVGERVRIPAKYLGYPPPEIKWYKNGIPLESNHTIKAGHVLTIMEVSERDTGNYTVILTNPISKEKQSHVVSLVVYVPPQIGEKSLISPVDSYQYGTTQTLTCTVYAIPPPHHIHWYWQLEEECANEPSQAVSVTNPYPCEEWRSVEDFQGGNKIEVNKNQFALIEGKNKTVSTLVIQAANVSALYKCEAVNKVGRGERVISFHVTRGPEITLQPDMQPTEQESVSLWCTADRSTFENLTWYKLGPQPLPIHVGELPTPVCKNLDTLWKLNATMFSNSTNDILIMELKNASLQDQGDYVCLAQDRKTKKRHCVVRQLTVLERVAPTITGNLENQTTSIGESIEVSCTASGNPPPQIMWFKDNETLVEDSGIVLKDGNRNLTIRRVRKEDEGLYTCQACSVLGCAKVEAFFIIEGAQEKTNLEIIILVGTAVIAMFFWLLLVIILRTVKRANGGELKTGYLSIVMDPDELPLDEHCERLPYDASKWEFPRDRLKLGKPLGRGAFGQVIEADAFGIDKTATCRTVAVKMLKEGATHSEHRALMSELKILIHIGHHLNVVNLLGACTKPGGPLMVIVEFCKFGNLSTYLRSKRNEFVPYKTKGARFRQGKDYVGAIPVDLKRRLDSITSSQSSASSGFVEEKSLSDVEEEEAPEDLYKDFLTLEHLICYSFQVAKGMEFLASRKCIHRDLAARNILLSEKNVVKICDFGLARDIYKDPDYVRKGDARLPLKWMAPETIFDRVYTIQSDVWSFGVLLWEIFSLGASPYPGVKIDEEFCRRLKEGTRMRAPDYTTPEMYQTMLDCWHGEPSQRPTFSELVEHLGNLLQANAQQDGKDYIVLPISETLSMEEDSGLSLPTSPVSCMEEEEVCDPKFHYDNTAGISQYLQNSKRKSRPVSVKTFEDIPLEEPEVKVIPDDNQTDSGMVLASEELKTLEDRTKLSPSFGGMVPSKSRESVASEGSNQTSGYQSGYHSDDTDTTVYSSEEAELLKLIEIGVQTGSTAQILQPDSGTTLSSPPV
Fms, sequence (P07333 20-972): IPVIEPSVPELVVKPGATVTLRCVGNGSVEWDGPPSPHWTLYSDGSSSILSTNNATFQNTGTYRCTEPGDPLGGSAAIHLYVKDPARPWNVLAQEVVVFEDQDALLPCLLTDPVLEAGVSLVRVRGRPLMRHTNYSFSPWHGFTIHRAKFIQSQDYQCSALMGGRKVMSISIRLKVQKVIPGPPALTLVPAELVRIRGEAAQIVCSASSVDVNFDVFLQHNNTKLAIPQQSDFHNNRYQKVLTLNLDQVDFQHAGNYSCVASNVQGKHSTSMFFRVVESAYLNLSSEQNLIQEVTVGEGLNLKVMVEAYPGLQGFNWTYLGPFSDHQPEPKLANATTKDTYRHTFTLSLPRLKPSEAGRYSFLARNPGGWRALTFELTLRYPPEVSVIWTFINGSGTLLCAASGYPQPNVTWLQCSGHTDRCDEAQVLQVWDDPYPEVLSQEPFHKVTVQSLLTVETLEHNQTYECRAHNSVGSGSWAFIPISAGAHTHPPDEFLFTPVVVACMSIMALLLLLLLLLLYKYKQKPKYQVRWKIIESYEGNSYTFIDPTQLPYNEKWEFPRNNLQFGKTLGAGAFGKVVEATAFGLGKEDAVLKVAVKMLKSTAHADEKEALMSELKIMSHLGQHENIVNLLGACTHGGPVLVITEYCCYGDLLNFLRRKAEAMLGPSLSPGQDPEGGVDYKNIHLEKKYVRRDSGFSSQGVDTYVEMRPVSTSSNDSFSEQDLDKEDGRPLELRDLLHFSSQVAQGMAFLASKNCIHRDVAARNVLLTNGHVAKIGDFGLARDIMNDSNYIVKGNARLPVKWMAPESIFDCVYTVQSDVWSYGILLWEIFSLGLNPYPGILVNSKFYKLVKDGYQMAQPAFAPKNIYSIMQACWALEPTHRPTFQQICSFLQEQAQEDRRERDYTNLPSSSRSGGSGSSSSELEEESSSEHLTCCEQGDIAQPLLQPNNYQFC
Kit, sequence (P10721 26-976): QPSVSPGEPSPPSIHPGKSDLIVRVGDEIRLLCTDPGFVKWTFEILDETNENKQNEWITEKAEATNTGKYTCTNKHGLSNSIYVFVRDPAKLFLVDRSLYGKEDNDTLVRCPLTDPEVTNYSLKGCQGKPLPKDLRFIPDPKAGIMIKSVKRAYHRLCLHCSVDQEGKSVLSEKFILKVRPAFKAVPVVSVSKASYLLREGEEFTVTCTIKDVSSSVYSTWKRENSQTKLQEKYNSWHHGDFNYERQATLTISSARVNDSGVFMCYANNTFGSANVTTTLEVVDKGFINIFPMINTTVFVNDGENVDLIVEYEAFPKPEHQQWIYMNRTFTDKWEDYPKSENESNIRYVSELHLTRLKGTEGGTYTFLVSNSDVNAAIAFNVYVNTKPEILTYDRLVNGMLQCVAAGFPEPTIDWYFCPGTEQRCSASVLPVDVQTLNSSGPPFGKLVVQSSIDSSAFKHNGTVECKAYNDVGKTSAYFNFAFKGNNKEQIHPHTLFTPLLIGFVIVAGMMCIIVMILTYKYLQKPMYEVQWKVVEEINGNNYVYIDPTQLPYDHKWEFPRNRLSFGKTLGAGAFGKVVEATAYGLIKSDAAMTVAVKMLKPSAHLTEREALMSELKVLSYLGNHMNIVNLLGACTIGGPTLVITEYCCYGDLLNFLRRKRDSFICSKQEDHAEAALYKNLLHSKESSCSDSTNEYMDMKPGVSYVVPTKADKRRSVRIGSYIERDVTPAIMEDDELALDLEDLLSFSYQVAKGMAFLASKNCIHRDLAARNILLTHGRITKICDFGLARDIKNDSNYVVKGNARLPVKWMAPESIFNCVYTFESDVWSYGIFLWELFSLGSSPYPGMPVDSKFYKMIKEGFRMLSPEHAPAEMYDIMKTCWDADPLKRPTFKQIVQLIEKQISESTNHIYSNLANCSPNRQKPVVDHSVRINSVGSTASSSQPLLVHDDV

IC50 [1]: < 10 µM
IC50 [2]: < 10 µM
IC50 [3]: < 10 µM
IC50 [4]: < 10 µM
SMILES: COc1ccc(CNc2ccc(Cc3c[nH]c4nccnc34)cn2)cn1 [Compound P-0001, (6-methoxy-pyridin-3-ylmethyl)-[5-(5H-pyrrolo[2,3-b]pyrazin-7-ylmethyl)-pyridin-2-yl]-amine]
